# In patent US9174994B2, “Enhanced treatment regimens using mTor inhibitors” (INTELLIKINE LLC, priority 2011, dated 2015):
# Experiments:
# [1] = system: TORC1 (p4EBP1 and pS6) and TORC2 (pPRAS40); assay: Human skin immunohistochemistry assay (skin biopsies, Phase I trial); format: in vivo
# Description: Skin tissue was fixed in 10% neutral-buffered formalin solution for 24 hours and then processed and embedded in paraffin block. Sections (4 μm) were cut and mounted onto microscopic slides. Sections were incubated with primary antibodies (p4EBP1, pS6, or pRAS40) overnight and developed using a chromogenic substrate.
# Pharmacodynamic (PD) endpoints were evaluated in surrogate (peripheral blood cells [PBCs], skin) and tumor tissues for the phosphorylation of TORC1-dependent markers (4EBP1/S6), and TORC2-dependent markers (AKT/PRAS40). 50 patients were treated in 3 intermittent dosing regimens; 21 in 6 cohorts ranging 7-40 mg QW, 20 in 5 cohorts ranging 6-20 mg QDx3d QW, and 9 in 3 cohorts ranging 7-13 mg QDxSd QW. […] The MTD for intermittent dosing was not reached. All adverse events (AEs) reported were reversible. The most common (≧20%, n=35) AEs considered possibly related to compound A reported in all 3 dosing regimens included nausea (51%), hyperglycemia (37%), mucosal inflammation (29%), rash (23%), asthenia (23%), vomiting (26%), and diarrhea (20%). The majority of AEs considered possibly related to compound A in any regimen were Grade 1 or 2. The only reported Grade ≧3 AE (≧5%) possibly related to compound A in 3 regimens was lymphopenia (6%). Tables 4-9 show summaries of observed adverse events for various treatment regimens of the invention.
# advanced solid tumors = assay: Phase I clinical trial: preliminary antitumor activity; format: in vivo, human; conditions: patients with lung and renal cancer
# Description: Adult patients with histologically confirmed advanced solid tumors were enrolled in a 3+3 dose escalation Phase I study evaluating 3 intermittent schedules of administration for compound A: QW (once weekly), QD×3d QW (3 days on 4 days off), and QD×5d QW (5 days on 2 days off), in comparison with daily dosing (QD). Safety, maximum tolerated dose (MTD), pharmacokinetics (PK) and preliminary antitumor activity were evaluated.
# [2] = Additional study: grade 3 or greater treatment-emergent adverse events; format: in vivo, human
smiles,measurement,setting,value
CC(C)n1nc(-c2ccc3oc(N)nc3c2)c2c(N)ncnc21 [compound A],"PD (% inhibition, H score) Skin: 4EBP1/PRAS40",[1]; 10 mg Q5D,80%
same,"PD (% inhibition, H score) Skin: 4EBP1/PRAS40",[1]; 13 mg Q5D,80%
same,"PD (% inhibition, H score) Skin: 4EBP1/PRAS40",[1]; 16 mg Q3D,80%
same,"PD (% inhibition, H score) Skin: 4EBP1/PRAS40",[1]; 20 mg Q3D,80%
same,"PD (% inhibition, H score) Skin: 4EBP1/PRAS40",[1]; 30 mg QW,80%
same,"PD (% inhibition, H score) Skin: 4EBP1/PRAS40",[1]; 40 mg QW,80%
same,pathway inhibition of TORC1 (p4EBP1 and pS6) and TORC2 (pPRAS40),[1]; skin biopsies,60-100%
same,Preliminary anti-tumor activity,advanced solid tumors,Preliminary anti-tumor activity was seen
same,Grade 3 or greater TEAE: Anaemia,[2]; QD Dosing (N = 29),1 (3%)
same,Grade 3 or greater TEAE: Aspartate aminotransferase increase,[2]; QD Dosing (N = 29),0 (0%)
same,Grade 3 or greater TEAE: Asthenia,[2]; QD Dosing (N = 29),1 (3%)
same,Grade 3 or greater TEAE: Blood creatinine increase,[2]; QD Dosing (N = 29),0 (0%)
same,Grade 3 or greater TEAE: Deep vein thrombosis,[2]; QD Dosing (N = 29),0 (0%)
same,Grade 3 or greater TEAE: Diarrhoea,[2]; QD Dosing (N = 29),1 (3%)
same,Grade 3 or greater TEAE: Disease progression,[2]; QD Dosing (N = 29),0 (0%)
same,Grade 3 or greater TEAE: Fatigue,[2]; QD Dosing (N = 29),0 (0%)
same,Grade 3 or greater TEAE: Gamma-glutamyltransferase increase,[2]; QD Dosing (N = 29),0 (0%)
same,Grade 3 or greater TEAE: Hyperglycaemia,[2]; QD Dosing (N = 29),4 (14%)
same,Grade 3 or greater TEAE: Hypokalaemia,[2]; QD Dosing (N = 29),2 (7%)
same,Grade 3 or greater TEAE: Hyponatraemia,[2]; QD Dosing (N = 29),2 (7%)
same,Grade 3 or greater TEAE: Hypophsphataemia,[2]; QD Dosing (N = 29),0 (0%)
same,Grade 3 or greater TEAE: Lymphopenia,[2]; QD Dosing (N = 29),2 (7%)
same,Grade 3 or greater TEAE: Mucosal Inflammation,[2]; QD Dosing (N = 29),0 (0%)
same,Grade 3 or greater TEAE: Muscular weakness,[2]; QD Dosing (N = 29),0 (0%)
same,Grade 3 or greater TEAE: Nausea,[2]; QD Dosing (N = 29),0 (0%)
same,Grade 3 or greater TEAE: Neutropenia,[2]; QD Dosing (N = 29),0 (0%)
same,Grade 3 or greater TEAE: Pruritus,[2]; QD Dosing (N = 29),2 (7%)
same,Grade 3 or greater TEAE: Rash,[2]; QD Dosing (N = 29),7 (24%)
same,Grade 3 or greater TEAE: Thrombocytopenia,[2]; QD Dosing (N = 29),2 (7%)
same,Grade 3 or greater TEAE: Vomiting,[2]; QD Dosing (N = 29),0 (0%)
same,Patients Reporting at least one Grade 3 or greater TEAE,[2]; QD Dosing (N = 29),17 (59%)
same,Grade 3 or greater TEAE: Anaemia,[2]; QDx3d QW (N = 25),2 (8%)
same,Grade 3 or greater TEAE: Aspartate aminotransferase increase,[2]; QDx3d QW (N = 25),0 (0%)
same,Grade 3 or greater TEAE: Asthenia,[2]; QDx3d QW (N = 25),1 (4%)
same,Grade 3 or greater TEAE: Blood creatinine increase,[2]; QDx3d QW (N = 25),2 (8%)
same,Grade 3 or greater TEAE: Deep vein thrombosis,[2]; QDx3d QW (N = 25),1 (4%)
same,Grade 3 or greater TEAE: Diarrhoea,[2]; QDx3d QW (N = 25),1 (4%)
same,Grade 3 or greater TEAE: Disease progression,[2]; QDx3d QW (N = 25),0 (0%)
same,Grade 3 or greater TEAE: Fatigue,[2]; QDx3d QW (N = 25),0 (0%)
same,Grade 3 or greater TEAE: Gamma-glutamyltransferase increase,[2]; QDx3d QW (N = 25),1 (4%)
same,Grade 3 or greater TEAE: Hyperglycaemia,[2]; QDx3d QW (N = 25),4 (16%)
same,Grade 3 or greater TEAE: Hypokalaemia,[2]; QDx3d QW (N = 25),0 (0%)
same,Grade 3 or greater TEAE: Hyponatraemia,[2]; QDx3d QW (N = 25),0 (0%)
same,Grade 3 or greater TEAE: Hypophsphataemia,[2]; QDx3d QW (N = 25),3 (12%)
same,Grade 3 or greater TEAE: Lymphopenia,[2]; QDx3d QW (N = 25),2 (8%)
same,Grade 3 or greater TEAE: Mucosal Inflammation,[2]; QDx3d QW (N = 25),4 (16%)
same,Grade 3 or greater TEAE: Muscular weakness,[2]; QDx3d QW (N = 25),1 (4%)
same,Grade 3 or greater TEAE: Nausea,[2]; QDx3d QW (N = 25),1 (4%)
same,Grade 3 or greater TEAE: Neutropenia,[2]; QDx3d QW (N = 25),0 (0%)
same,Grade 3 or greater TEAE: Pruritus,[2]; QDx3d QW (N = 25),1 (4%)
same,Grade 3 or greater TEAE: Rash,[2]; QDx3d QW (N = 25),1 (4%)
same,Grade 3 or greater TEAE: Thrombocytopenia,[2]; QDx3d QW (N = 25),0 (0%)
same,Grade 3 or greater TEAE: Vomiting,[2]; QDx3d QW (N = 25),1 (4%)
same,Patients Reporting at least one Grade 3 or greater TEAE,[2]; QDx3d QW (N = 25),18 (72%)
same,Grade 3 or greater TEAE: Anaemia,[2]; QDx5d QW (N = 15),1 (7%)
same,Grade 3 or greater TEAE: Aspartate aminotransferase increase,[2]; QDx5d QW (N = 15),1 (7%)
same,Grade 3 or greater TEAE: Asthenia,[2]; QDx5d QW (N = 15),1 (7%)
same,Grade 3 or greater TEAE: Blood creatinine increase,[2]; QDx5d QW (N = 15),0 (0%)
same,Grade 3 or greater TEAE: Deep vein thrombosis,[2]; QDx5d QW (N = 15),0 (0%)
same,Grade 3 or greater TEAE: Diarrhoea,[2]; QDx5d QW (N = 15),0 (0%)
same,Grade 3 or greater TEAE: Disease progression,[2]; QDx5d QW (N = 15),0 (0%)
same,Grade 3 or greater TEAE: Fatigue,[2]; QDx5d QW (N = 15),2 (13%)
same,Grade 3 or greater TEAE: Gamma-glutamyltransferase increase,[2]; QDx5d QW (N = 15),1 (7%)
same,Grade 3 or greater TEAE: Hyperglycaemia,[2]; QDx5d QW (N = 15),1 (7%)
same,Grade 3 or greater TEAE: Hypokalaemia,[2]; QDx5d QW (N = 15),0 (0%)
same,Grade 3 or greater TEAE: Hyponatraemia,[2]; QDx5d QW (N = 15),0 (0%)
same,Grade 3 or greater TEAE: Hypophsphataemia,[2]; QDx5d QW (N = 15),2 (13%)
same,Grade 3 or greater TEAE: Lymphopenia,[2]; QDx5d QW (N = 15),1 (7%)
same,Grade 3 or greater TEAE: Mucosal Inflammation,[2]; QDx5d QW (N = 15),3 (20%)
same,Grade 3 or greater TEAE: Muscular weakness,[2]; QDx5d QW (N = 15),0 (0%)
same,Grade 3 or greater TEAE: Nausea,[2]; QDx5d QW (N = 15),1 (7%)
same,Grade 3 or greater TEAE: Neutropenia,[2]; QDx5d QW (N = 15),1 (7%)
same,Grade 3 or greater TEAE: Pruritus,[2]; QDx5d QW (N = 15),0 (0%)
same,Grade 3 or greater TEAE: Rash,[2]; QDx5d QW (N = 15),1 (7%)
same,Grade 3 or greater TEAE: Thrombocytopenia,[2]; QDx5d QW (N = 15),0 (0%)
same,Grade 3 or greater TEAE: Vomiting,[2]; QDx5d QW (N = 15),1 (7%)
same,Patients Reporting at least one Grade 3 or greater TEAE,[2]; QDx5d QW (N = 15),8 (53%)
same,Grade 3 or greater TEAE: Anaemia,[2]; QW Dosing (N = 22),2 (9%)
same,Grade 3 or greater TEAE: Aspartate aminotransferase increase,[2]; QW Dosing (N = 22),1 (5%)
same,Grade 3 or greater TEAE: Asthenia,[2]; QW Dosing (N = 22),1 (5%)
same,Grade 3 or greater TEAE: Blood creatinine increase,[2]; QW Dosing (N = 22),0 (0%)
same,Grade 3 or greater TEAE: Deep vein thrombosis,[2]; QW Dosing (N = 22),1 (5%)
same,Grade 3 or greater TEAE: Diarrhoea,[2]; QW Dosing (N = 22),1 (5%)
same,Grade 3 or greater TEAE: Disease progression,[2]; QW Dosing (N = 22),2 (9%)
same,Grade 3 or greater TEAE: Fatigue,[2]; QW Dosing (N = 22),1 (5%)
same,Grade 3 or greater TEAE: Gamma-glutamyltransferase increase,[2]; QW Dosing (N = 22),1 (5%)
same,Grade 3 or greater TEAE: Hyperglycaemia,[2]; QW Dosing (N = 22),0 (0%)
same,Grade 3 or greater TEAE: Hypokalaemia,[2]; QW Dosing (N = 22),1 (5%)
same,Grade 3 or greater TEAE: Hyponatraemia,[2]; QW Dosing (N = 22),0 (0%)
same,Grade 3 or greater TEAE: Hypophsphataemia,[2]; QW Dosing (N = 22),0 (0%)
same,Grade 3 or greater TEAE: Lymphopenia,[2]; QW Dosing (N = 22),1 (5%)
same,Grade 3 or greater TEAE: Mucosal Inflammation,[2]; QW Dosing (N = 22),0 (0%)
same,Grade 3 or greater TEAE: Muscular weakness,[2]; QW Dosing (N = 22),1 (5%)
same,Grade 3 or greater TEAE: Nausea,[2]; QW Dosing (N = 22),0 (0%)
same,Grade 3 or greater TEAE: Neutropenia,[2]; QW Dosing (N = 22),1 (5%)
same,Grade 3 or greater TEAE: Pruritus,[2]; QW Dosing (N = 22),0 (0%)
same,Grade 3 or greater TEAE: Rash,[2]; QW Dosing (N = 22),0 (0%)
same,Grade 3 or greater TEAE: Thrombocytopenia,[2]; QW Dosing (N = 22),0 (0%)
same,Grade 3 or greater TEAE: Vomiting,[2]; QW Dosing (N = 22),1 (5%)
same,Patients Reporting at least one Grade 3 or greater TEAE,[2]; QW Dosing (N = 22),10 (45%)
same,Grade 3 or greater TEAE: Anaemia,[2]; Total (N = 91),6 (7%)
same,Grade 3 or greater TEAE: Aspartate aminotransferase increase,[2]; Total (N = 91),2 (2%)
same,Grade 3 or greater TEAE: Asthenia,[2]; Total (N = 91),4 (4%)
same,Grade 3 or greater TEAE: Blood creatinine increase,[2]; Total (N = 91),2 (2%)
same,Grade 3 or greater TEAE: Deep vein thrombosis,[2]; Total (N = 91),2 (2%)
same,Grade 3 or greater TEAE: Diarrhoea,[2]; Total (N = 91),3 (3%)
same,Grade 3 or greater TEAE: Disease progression,[2]; Total (N = 91),2 (2%)
same,Grade 3 or greater TEAE: Fatigue,[2]; Total (N = 91),3 (3%)
same,Grade 3 or greater TEAE: Gamma-glutamyltransferase increase,[2]; Total (N = 91),3 (3%)
same,Grade 3 or greater TEAE: Hyperglycaemia,[2]; Total (N = 91),9 (10%)
same,Grade 3 or greater TEAE: Hypokalaemia,[2]; Total (N = 91),3 (3%)
same,Grade 3 or greater TEAE: Hyponatraemia,[2]; Total (N = 91),2 (2%)
same,Grade 3 or greater TEAE: Hypophsphataemia,[2]; Total (N = 91),5 (5%)
same,Grade 3 or greater TEAE: Lymphopenia,[2]; Total (N = 91),6 (7%)
same,Grade 3 or greater TEAE: Mucosal Inflammation,[2]; Total (N = 91),7 (8%)
same,Grade 3 or greater TEAE: Muscular weakness,[2]; Total (N = 91),2 (2%)
same,Grade 3 or greater TEAE: Nausea,[2]; Total (N = 91),2 (2%)
same,Grade 3 or greater TEAE: Neutropenia,[2]; Total (N = 91),2 (2%)
same,Grade 3 or greater TEAE: Pruritus,[2]; Total (N = 91),3 (3%)
same,Grade 3 or greater TEAE: Rash,[2]; Total (N = 91),9 (10%)
same,Grade 3 or greater TEAE: Thrombocytopenia,[2]; Total (N = 91),2 (2%)
same,Grade 3 or greater TEAE: Vomiting,[2]; Total (N = 91),3 (3%)
same,Patients Reporting at least one Grade 3 or greater TEAE,[2]; Total (N = 91),53 (58%)
